# Results: US7276511B2, “Benzylamine derivative” (Zeria Pharmaceutical Co., Ltd., priority 2003, dated 2007)
# Counter-ions that a name gives are not always drawn.
# Target: NK-1 receptor (Homo sapiens, UniProt P25103)
# Experiment: NK-1 receptor-binding test ([3H]-Substance P, hNK1-CHO cells)
# Set-up: expressed in transfected cells; host or cells: CHO-K1 cells (ATCC: CCL-61), G418-resistant, hNK1-CHO
# Details: not given
# Protocol: 1. NK-1 Receptor-binding Test
# 1) Preparation of Human NK-1 Receptor Expression Cells
# FuGene 6 transfection reagent (Boegringer Mannheim) (3 μL) was diluted in an F-12 culture broth (97 μL), and pCR3.1 plasmid to which human NK-1 receptor cDNA had been introduced (Invitrogen) (10 μL) was added thereto. The mixture was mixed and incubated for 15 minutes (transfection reagent). CHO-K1 cells (ATCC: CCL-61) were cultured for 24 hours, and the whole reagent prepared above was added to the cultured CHO-K1 cells ([…]). Subsequently, culture was performed in the presence of G418 (Stratagene), and the resistant cells were employed as cells into which human NK-1 receptor gene was introduced (hNK1-CHO).
# 2) Subcultivation of hNK1-CHO Cells
# The hNK1-CHO cells were treated with trypsin-EDTA and subcultivated in an F-12 culture broth (containing 10% fetal bovine serum, 10 mM HEPES, 100 U/mL, penicillin, 100 μg/mL streptmycin, 400 μg/mL G418) in a 75-cm^2 flask (FALCON). Cells to be employed in the receptor-binding experiment were added to a 24-well plate (IWAKI) at 1×10^5 cells/well, and subcultured for 48 hours at 37° C. under 95% […] and 5% CO2.
# 3) Receptor-binding Experiment
# When the hNK1-CHO cells became subconfluent on the 24-well plate, an F-12 culture broth (containing 10 mM HEPES and 0.1% fetal bovine serum) (450 μL), [^3H]-Substance P (Amersham, final concentration 0.5 nM), and a test compound were added to the cells, and the mixture was incubated for 40 minutes at 37° C. For the measurement of non-specific binding, L703606 (Sigma) was added instead of the test compound. After completion of incubation, the mixture was washed with ice-cooled phosphate buffered saline containing 0.1% fetal bovine serum, and the cells were lysed with 1N NaOH (0.5 mL). The lysate was transfered to a plastic vial containing UltimaGold MV (5 mL), and the radioactivity was determined by means of a liquid liquid scintillation counter (Packard, 2000CA).
# Percent radioactive ligand-receptor binding inhibition of each test compound was calculated by use of the following equation, and IC50 (nM) was determined through pseudo-Hill analysis.
# Percent inhibition (%)=[1−(C−A)/(B−A)]×100
# A: Radioactivity attributed to non-specific binding
# B: Radioactivity without test compound
# C: Radioactivity with test compound
# Sequence of NK-1 receptor (P25103 whole entry): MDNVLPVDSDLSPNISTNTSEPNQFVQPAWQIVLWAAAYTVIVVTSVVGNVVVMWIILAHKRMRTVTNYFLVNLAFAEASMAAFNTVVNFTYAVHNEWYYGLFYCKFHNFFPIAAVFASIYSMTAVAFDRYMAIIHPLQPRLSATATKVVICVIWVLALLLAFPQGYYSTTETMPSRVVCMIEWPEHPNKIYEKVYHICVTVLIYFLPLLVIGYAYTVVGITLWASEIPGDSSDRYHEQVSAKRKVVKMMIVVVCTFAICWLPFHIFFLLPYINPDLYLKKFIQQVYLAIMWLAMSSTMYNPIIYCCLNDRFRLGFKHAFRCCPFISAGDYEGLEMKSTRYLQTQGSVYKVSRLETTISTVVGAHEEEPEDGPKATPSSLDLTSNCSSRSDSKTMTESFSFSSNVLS
row,Structure (SMILES),IC50
1,"CN(C[C@](CCCN1CCC(C(N)=O)(c2ccccc2)CC1)(c1ccc(Cl)c(Cl)c1)N(C)C(=O)Oc1ccccc1)C(=O)C(F)(F)F [Compound No. 578, phenyl[1-(2,2,2-trifluoro-N-methylacetamide)-2-(S)-(3,4-dichlorophenyl)-5-(4-carbamoyl-4-phenylpiperidine-1′-yl)pentan-2-yl]methylcarbamate hydrochloride]",9.5 nM
2,"COc1cc(COCC(CCCN2CCC(C(N)=O)(c3ccccc3)CC2)(c2ccc(Cl)c(Cl)c2)N(C)C(=O)Oc2ccccc2)cc(OC)c1OC (racemic) [Compound No. 17, [4-(4-Carbamoyl-4-phenyl-piperidine-1-yl)-1-(3,4-dichloro-phenyl)-1-(3,4,5-trimethoxy-benzyloxymethyl)-butyl]-methyl-carbamic acid phenyl ester hydrochloride]",1.5 nM
3,"CN(C[C@](CCCN1CCC2(CC1)c1ccccc1C[S@+]2[O-])(c1ccc(Cl)c(Cl)c1)N(C)C(=O)Oc1ccc(Cl)c(Cl)c1)C(=O)CC(F)(F)F [Compound No. 654, 3,4-dichlorophenyl{1-(3,3,3-trifluoro-N-methylpropanamido)-2-(S)-(3,4-dichlorophenyl)-5-[spiro(benzo(c)thiophene-(2S)-oxido-1(3H),4′-piperidin)-1′-yl]pentan-2-yl}methylcarbamate hydrochloride]",3 nM
4,"CN(C[C@](CCCN1CCC2(CC1)c1ccccc1C[S@+]2[O-])(c1ccc(Cl)c(Cl)c1)N(C)C(=O)Oc1ccc(F)c(F)c1)C(=O)CC(F)(F)F [compound 655, 3,4-difluorophenyl{1-(3,3,3-trifluoro-N-methylpropanamido)-2-(S)-(3,4-dichlorophenyl)-5-[spiro(benzo(c)thiophene-(2S)-oxido-1(3H),4′-piperidin)-1′-yl]pentan-2-yl}methylcarbamate hydrochloride]",1.3 nM
5,"COc1ccc(OC(=O)N(C)[C@](CCCN2CCC3(CC2)c2ccccc2C[S@+]3[O-])(CN(C)C(=O)CC(F)(F)F)c2ccc(Cl)c(Cl)c2)cc1 [Compound No. 640, 4-methoxyphenyl{1-(3,3,3-trifluoro-N-methylpropanamido)-2-(s)-(3,4-dichlorophenyl)-5-[spiro(benzo(c)thiophene-(2S)-oxido-1(3H),4′-piperidin)-1′-yl]pentan-2-yl}methylcarbamate hydrochloride]",6 nM
6,"CN(C[C@](CCCN1CCC2(CC1)c1ccccc1C[S@+]2[O-])(c1ccc(Cl)c(Cl)c1)N(C)C(=O)Oc1cccc(Cl)c1Cl)C(=O)CC(F)(F)F [Compound No. 653, 2,3-dichlorophenyl{1-(3,3,3-trifluoro-N-methylpropanamido)-2-(S)-(3,4-dichlorophenyl)-5-[spiro(benzo(c)thiophene-(2S)-oxido-1(3H),4′-piperidin)-1′-yl]pentan-2-yl}methylcarbamate hydrochloride]",1.6 nM
7,"COc1cc(C(=O)N(C)C[C@](CCCN2CCC3(CC2)c2ccccc2C[S@+]3[O-])(c2ccc(Cl)c(Cl)c2)N(C)C(=O)Oc2ccccc2)cc(OC)c1OC [Compound No. 589, phenyl{1-(3,4,5-trimethoxy-N-methylbenzamide)-2-(S)-(3,4-dichlorophenyl)-5-[spiro(benzo(c)thiophene-(2S)-oxido-1(3H),4′-piperidin)-1′-yl]pentan-2-yl}methylcarbamate hydrochloride]",0.53 nM
8,"CN(C[C@](CCCN1CCC2(CC1)c1ccccc1C[S@+]2[O-])(c1ccc(Cl)c(Cl)c1)N(C)C(=O)Oc1ccccc1)C(=O)C(F)(F)F [Compound No. 642, phenyl{1-(2,2,2-trifluoro-N-methylacetamide)-2-(S)-(3,4-dichlorophenyl)-5-[spiro(benzo(c)thiophene-(2S)-oxido-1(3H),4′-piperidin)-1′-yl]pentan-2-yl}methylcarbamate hydrochloride]",3.7 nM
9,"CN(C[C@](CCCN1CCC2(CC1)c1ccccc1C[S@+]2[O-])(c1ccc(Cl)c(Cl)c1)N(C)C(=O)Oc1ccccc1F)C(=O)CC(F)(F)F [Compound No. 638, 2-fluorophenyl{1-(3,3,3-trifluoro-N-methylpropanamido)-2-(S)-(3,4-dichlorophenyl)-5-[spiro(benzo(c)thiophene-(2S)-oxido-1(3H),4′-piperidin)-1′-yl]pentan-2-yl}methylcarbamate hydrochloride]",6 nM
10,"COc1ccccc1OC(=O)N(C)[C@](CCCN1CCC2(CC1)c1ccccc1C[S@+]2[O-])(CN(C)C(=O)CC(F)(F)F)c1ccc(Cl)c(Cl)c1 [Compound No. 636, 2-methoxyphenyl{1-(3,3,3-trifluoro-N-methylpropanamido)-2-(S)-(3,4-dichlorophenyl)-5-[spiro(benzo(c)thiophene-(2S)-oxido-1(3H),4′-piperidin)-1′-yl]pentan-2-yl}methylcarbamate hydrochloride]",0.9 nM
11,"CN(C[C@](CCCN1CCC2(CC1)c1ccccc1C[S@+]2[O-])(c1ccc(Cl)c(Cl)c1)N(C)C(=O)Oc1ccc(F)cc1)C(=O)CC(F)(F)F [Compound No. 639, 4-fluorophenyl{1-(3,3,3-trifluoro-N-methylpropanamido)-2-(S)-(3,4-dichlorophenyl)-5-[spiro(benzo(c)thiophene-(2S)-oxido-1(3H),4′-piperidin)-1′-yl]pentan-2-yl}methylcarbamate hydrochloride]",4 nM

# Same assay, conditions: Table 2; inhibition of [3H]-Substance P (0.5 nM) binding to hNK1-CHO cells, pseudo-Hill analysis; read-out: NK-1
row,Structure (SMILES),IC50
1,"COc1cc(COC[C@](CCCN2CCC3(CC2)c2ccccc2C[S@+]3[O-])(c2ccc(Cl)c(Cl)c2)N(C)C(=O)Nc2cccc(C(F)(F)F)c2)cc(OC)c1OC [Compound No. 616, 1-{1-(3,4,5-trimethoxybenzyloxy)-2-(S)-(3,4-dichlorophenyl)-5-[spiro(benzo(c)thiophene-(2S)-oxido-1(3H),4′-piperidin)-1′-yl]pentan-2-yl}-3-[3-(trifluoromethyl)phenyl]-1-methylurea hydrochloride]",2 nM
2,"COc1cc(COC[C@](CCCN2CCC3(CC2)c2ccccc2C[S@+]3[O-])(c2ccc(Cl)c(Cl)c2)N(C)C(=O)NC2CCCCC2)cc(OC)c1OC [Compound No. 599, 1-{1-(3,4,5-trimethoxybenzyloxy)-2-(S)-(3,4-dichlorophenyl)-5-[spiro(benzo(c)thiophene-(2S)-oxido-1(3H),4′-piperidin)-1′-yl]pentan-2-yl}-3-cyclohexyl-1-methylurea hydrochloride]",0.73 nM
3,"COc1cc(COCC(CCCN2CCC(C(N)=O)(c3ccccc3)CC2)(c2ccc(Cl)c(Cl)c2)N(C)C(=O)Nc2ccccc2)cc(OC)c1OC (racemic) [Compound No. 15, 1-[4-(3,4-Dichloro-phenyl)-4-(1-methyl-3-phenyl-ureido)-5-(3,4,5-trimethoxy-benzyloxy)-pentyl]-4-phenyl-piperidine-4-carboxylic acid amide]",0.9 nM
4,"COc1cc(COC[C@](CCCN2CCC3(CC2)c2ccccc2C[S@+]3[O-])(c2ccc(Cl)c(Cl)c2)N(C)C(=O)Nc2cccc(F)c2)cc(OC)c1OC [Compound No. 615, 1-{1-(3,4,5-trimethoxybenzyloxy)-2-(S)-(3,4-dichlorophenyl)-5-[spiro(benzo(c)thiophene-(2S)-oxido-1(3H),4′-piperidin)-1′-yl]pentan-2-yl}-3-(3-fluorophenyl)-1-methylurea hydrochloride]",0.58 nM
5,"COc1cc(COC[C@](CCCN2CCC3(CC2)c2ccccc2C[S@+]3[O-])(c2ccc(Cl)c(Cl)c2)N(C)C(=O)NCc2ccc(F)cc2)cc(OC)c1OC [Compound No. 621, 1-{1-(3,4,5-trimethoxybenzyloxy)-2-(S)-(3,4-dichlorophenyl)-5-[spiro(benzo(c)thiophene(2S)-oxido-1(3H),4′-piperidin)-1′-yl]pentan-2-yl}-3-(4-fluorobenzyl)-1-methylurea hydrochloride]",0.94 nM
6,"COc1cc(C(=O)N(C)CC(CCN2CCC(C(N)=O)(c3ccccc3)CC2)(c2ccc(Cl)c(Cl)c2)N(C)C(=O)Oc2ccccc2)cc(OC)c1OC (racemic) [Compound No. 16, (3-(4-Carbamoyl-4-phenyl-piperidine-1-yl)-1-(3,4-dichloro-phenyl)-1-{[methyl-(3,4,5-trimethoxy-benzoyl)-amino]-methyl}-propyl)-methyl-carbamic acid phenyl ester hydrochloride]",3.5 nM
